Data as given in patent US20250346613A1, “BORIC ACID PROTEASOME INHIBITOR AND USE THEREOF” (ARTIVILA BIOPHARMA, priority 2022, published 2025).

Experiment: Blood concentration measurement of orally-administrated mice
Format: in vivo, C57BL/6JNifdc mice
Conditions: C57BL/6JNifdc, mouse, plasma, oral, 30 mg/kg; for concentration at 0.5 h: read-out: Average blood compound concentration (μM) 0.5 h; for concentration at 1 h: read-out: Average blood compound concentration (μM) 1.0 h; for concentration at 1.5 h: read-out: Average blood compound concentration (μM) 1.5 h; for concentration at 2 h: read-out: Average blood compound concentration (μM) 2.0 h
Procedure: The C57BL/6JNifdc mice used in this experiment were provided by Zhejiang Vital River Laboratory Animal Technology Co., Ltd. The compounds were dissolved in DMSO/Solutol/Saline (v/v/v=10/10/80) as a stock solution (3 mg/mL). The stock solution was administrated orally to 6 C57BL/6JNifdc mice at a dose of 30 mg/kg. Blood was collected from the orbital venous plexus at 0.5 h, 1 h, 1.5 h, and 2 h after oral administration.
Approximately 200 μL of blood samples were collected into EDTAK2 Blood Collection tubes and then immediately centrifuged at 10,000 rpm for 5 min. 66 μL of plasma supernatant was added with 198 μL of acetonitrile (Energy), the resulting mixture was shaken on a vortex for 5 min, and then immediately centrifuged at 13000 rpm for 8 min. 200 μL of supernatant was taken for blood compound concentration measurement.
The compound was accurately weighed and dissolved in acetonitrile to a concentration of 100 μg/mL. 50 μL of compound was pipetted and added to 4.95 mL of acetonitrile/water (v/v=3/1) solution to obtain 1000 ng/mL mother liquid. 650 μL of the mother liquid was taken and sequentially diluted with a solution of acetonitrile/water (v/v=3/1) in a 2-fold gradient to obtain standard samples with various concentrations of 500 ng/mL, 250 ng/mL, 125 ng/mL, 62.5 ng/mL, and 31.25 ng/mL.
Standard solutions with concentrations of 1000 ng/mL, 500 ng/mL, 250 ng/mL, 125 ng/mL, 62.5 ng/mL, and 31.25 ng/mL were measured by using LC-MS (LC-MS 2020+LC-2030 Plus, Shimadzu) SIM mode to obtain a calibration curve. The treated blood samples were measured by this method and then subjected to quantitative analysis by using the calibration curve to obtain compound concentration data of each treated blood sample.
The data were exported and the average blood compound concentration at each sampling time was calculated.
Blood compound concentration=compound concentration in treated blood sample×4/molecular weight of the compound. The average blood compound concentration is the average of the compound concentrations in the blood at each sampling time.

Row | concentration at 0.5 h | concentration at 1 h | concentration at 1.5 h | concentration at 2 h | SMILES
1 | 23 µM | 20 µM | 22 µM | 16 µM | Cc1ccc(C[C@H](NC(=O)C(C)C(=O)NCc2ccc(Cl)cc2Cl)B(O)O)cc1 (stereo partly drawn) [Example 59, ((1R)-1-(3-((2,4-dichlorobenzyl)amino)-2-methyl-3-oxopropionamido)-2-(p-tolyl)ethyl)boric acid]
2 | 23 µM | 24 µM | 15 µM | 16 µM | COc1cccc(CCNC(=O)C(C)C(=O)N[C@@H](Cc2coc3ccccc23)B(O)O)c1 (stereo partly drawn) [Example 63, ((1R)-2-(benzofuran-3-yl)-1-(3-((3-methoxyphenylethyl)amino)-2-methyl-3-oxopropionamido)ethyl)boric acid]
